# pIC50: −log10 of the molar value. The source made the active and inactive calls. Cut-off not given; nearly all actives show IC50 up to about 8.9 µM.
# Target: Signal transducer and activator of transcription 3 (Homo sapiens) (UniProt P40763)
# Experiment: blockers of STAT3 signaling, concentration series – cell-based, dose response (AID 1399)
# Details: human cell STAT3 reporter inhibition
Structure (SMILES),pIC50,IC50
O=C1C2C3c4ccccc4C(c4ccccc43)[C@@H]2c2nc3ccccc3n21 (some centres not stated),5.35,
COc1ccc(C(=O)Nc2ccc3oc(Cc4ccc(Cl)cc4)nc3c2)cc1OC,5.17,
c1ccc(C(Cc2nc(-c3ccncc3)no2)c2ccccc2)cc1,5.30,
CC(=O)c1ccc(N=Nc2ccc(C)cc2)cc1,5.32,
COc1ccc(/C=N/NC(=S)Nc2cccc(C(=O)O)c2)cc1,5.34,
C[C@H]1CCC[C@@H](O)CCC/C=C/c2cc(O)cc(O)c2C(=O)O1,5.28,
O=C(Nc1ccc(Oc2ccccc2)cc1)c1cnc2n(c1=O)CCS2,5.79,
NC(=O)C1CCN(c2ccc(S(=O)(=O)N3CCC(Cc4ccccc4)CC3)cn2)CC1,5.31,
NNC(=O)c1cccc(COc2ccccc2Br)c1,5.49,
O=C(Nc1cccc(O)c1)C(=O)Nc1ccccn1,5.43,
Cc1cc(C)n(Cc2ccc(NC(=O)c3ccc(COc4ccccc4Br)cc3)cc2)n1,5.12,
CCC(C)(C)c1ccc(OCCCC[n+]2cccc(C)c2)c(C(C)(C)CC)c1,5.39,
O=C(Nc1ccc(N2CCN(C(=O)c3ccco3)CC2)c(Cl)c1)c1cc2ccccc2o1,5.05,
COc1ccc(CC(=O)Nc2cccc(SC)c2)cc1OC,5.20,
C[C@H]1O[C@@H](O[C@H]2[C@@H](O)C[C@H](O[C@H]3[C@@H](O)C[C@H](O[C@H]4CC[C@@]5(C)[C@H](CC[C@@H]6[C@@H]5C[C@@H](O)[C@]5(C)[C@@H](C7=CC(=O)OC7)CC[C@]65O)C4)O[C@@H]3C)O[C@@H]2C)C[C@H](O)[C@@H]1O,5.73,
COc1ccc(CC(=O)Nc2cccc(-c3nnc(-c4cccc(C)c4)o3)c2)cc1OC,5.48,
O=C(Nc1ccc(N2CCOCC2)nc1)c1ccc(C(F)(F)F)cc1,5.47,
Cc1ccc(-c2cn3cc([N+](=O)[O-])ccc3n2)cc1,5.39,
CN(C)S(=O)(=O)Oc1cccc(C(=O)Nc2ccc(Cl)cc2)c1,5.28,
Cc1ccsc1/C=C1\CCc2ccccc2C1=O,5.30,
COc1cccc(-c2cc(C(=O)Nc3cccc(O)c3)no2)c1,5.30,
Oc1ccc(-c2n[nH]c(=S)n2-c2ccc3c(c2)OCCO3)c(O)c1,5.27,
O=S(=O)(c1ccc2c(c1)OCCO2)N1CCC(c2nc3ccccc3s2)CC1,5.17,
COc1cc(OC)cc(C(=O)Nc2nnc(NC(=S)Nc3ccccc3)s2)c1,5.41,
Nc1cc(-c2ccc(Br)cc2)nn1Cc1ccccc1,5.39,
O=C(Oc1ccccc1N1C(=O)C2CCCCC2C1=O)c1ccccc1 (configuration not stated),5.10,

Structure (SMILES),pIC50,IC50
Cc1csc(NC(=O)c2cc3c(s2)CCCC3)n1,5.42,
CCCCOc1ccc(C(=O)Nc2ccncc2)cc1,5.68,
COc1ccc(NS(=O)(=O)c2ccc(NC(=O)c3ccc(N(C)S(C)(=O)=O)cc3)cc2)cc1,5.40,
Cc1cc(OCC(=O)Nc2ccncc2)ccc1Br,5.17,
CC(=O)N1CCc2cc(S(=O)(=O)NC3CCCc4ccccc43)ccc21 (configuration not stated),5.29,
Cc1cc(OCC(=O)Nc2ccncc2)cc(C)c1Br,5.50,
CCOC(=O)c1oc2ccc(S(=O)(=O)Nc3ccc4c(c3)n(C)c(=O)n4C)cc2c1C,5.30,
CC(C)Cn1c(N)c(C(=O)CSc2ccccc2)c(=O)n(C)c1=O,5.25,
Cc1nc2ccccc2cc1OCc1ccc(F)cc1,5.46,
Cc1cc(NC(=O)c2cc(-c3cccs3)on2)nn1Cc1ccc(Cl)cc1,5.26,
COc1ccc2cc(-c3cc(C(=O)OCC(=O)Nc4c(C)n(C)n(-c5ccccc5)c4=O)c4ccccc4n3)ccc2c1,5.33,
COc1ccc(C)cc1-n1nnnc1SCn1nnc2ccccc2c1=O,5.12,
Cc1ccc2c(C)nc(Nc3nc(CSc4nc5ccccc5[nH]4)cc(=O)[nH]3)nc2c1,5.27,
Nc1c(C(=O)NC2CCCCC2)nsc1C(=O)OCC(=O)NC1CCCCC1,5.37,
c1ccc(CC2CCN(c3ncnc4sccc34)CC2)cc1,5.79,
Clc1ccc2ncc(-c3nnnn3-c3ccccc3)c(-c3ccccc3)c2c1,5.10,
Cc1ccc(Cl)cc1N1CCN(C(=O)COc2ccc(S(=O)(=O)NC(C)C)cc2)CC1,5.11,
CN(C)S(=O)(=O)c1ccc(C(=O)Nc2nc(-c3cccs3)cs2)cc1,5.06,
C[C@@H]1O[C@@H](O[C@H]2C[C@@H](O)[C@]3(CO)[C@H]4[C@H](O)C[C@]5(C)[C@@H](C6=CC(=O)OC6)CC[C@]5(O)[C@@H]4CC[C@]3(O)C2)[C@H](O)[C@H](O)[C@H]1O,5.94,
O=C1C2C3c4ccccc4C(c4ccccc43)C2c2nc3ccccc3n21 (configuration not stated),5.49,
Cc1nn2cc(-c3ncc(C(F)(F)F)cc3Cl)cnc2c1Br,,inactive
O=C(Nc1cccc(S(=O)(=O)Nc2ccccc2Cl)c1)c1ccc(Cl)nc1,5.29,
COC(=O)c1nn(-c2ccc3c(c2)CCN3C(C)=O)cc1O,5.89,
Cc1cccc(N2CCN(C(=O)CSCc3c(C)noc3C)CC2)c1C,5.34,
O=C(C1CCN(c2nc3ccc(Br)cc3s2)CC1)N1CCC2(CC1)OCCO2,5.55,
CCCOc1ccc(/C=N/NC(=S)Nc2ccccc2[N+](=O)[O-])c(O)c1,5.98,

Structure (SMILES),pIC50,IC50
O=C(Nc1ccncc1)c1ccc2c(c1)C(=O)N(C1CCCCC1)C2=O,5.62,
COC(=O)Oc1ccc(/C=N/NC(=O)CSCc2ccccc2Br)cc1OC,5.68,
O=C(NC1CC1)c1cc2c(s1)-c1ccccc1OC2,5.42,
CCCOc1ccc(CSc2nc3ccccc3[nH]2)cc1,5.19,
O=C(Nc1ccc(Oc2ccccc2)cc1)C1CCN(c2c3c(nc4ncnn24)CCC3)CC1,5.19,
CCN(CC)c1ccc(NC(=O)CN2C(=O)CSc3ncccc32)c(C)c1,5.42,
O=C(COC(=O)c1n[nH]c2ccccc12)Nc1ccc(S(=O)(=O)N2CCCC2)cc1,5.35,
CSc1ccc(NC(=O)N2CCN(c3nc4ccccc4s3)CC2)cc1,5.22,
O=C(Nc1cccc(O)c1)c1noc2c1CCc1ccccc1-2,5.45,
Cn1c(=O)oc2cc(S(=O)(=O)N3CCCC(C(=O)N4CC=C(c5ccccc5)CC4)C3)ccc21 (configuration not stated),5.27,
Cc1nc2ccccc2cc1OCc1ccccc1,5.32,
C[C@H]1O[C@@H](O[C@H]2[C@@H](O)C[C@H](O[C@H]3[C@@H](O)C[C@H](O[C@H]4CC[C@@]5(C)[C@H](CC[C@@H]6[C@@H]5CC[C@]5(C)[C@@H](C7=CC(=O)OC7)CC[C@]65O)C4)O[C@@H]3C)O[C@@H]2C)C[C@H](O)[C@@H]1O,6.15,
CC(=O)c1cn(CC(=O)Nc2ccccc2C)c2ccccc12,5.29,
CC1CCCCC1NS(=O)(=O)c1ccc(S(=O)(=O)NCc2ccncc2)cc1 (configuration not stated),5.48,
O=C(Oc1cccc(Nc2ncnc3ccccc23)c1)c1ccccc1Cl,5.35,
COc1ccc(/C=N/NC(=S)Nc2ccccc2[N+](=O)[O-])cc1O,5.76,
Cc1nc2sccn2c1-c1csc(NCc2ccccc2)n1,5.36,
CCC(C)NC(=S)Nc1ccc(C(=O)OC)cc1 (configuration not stated),5.36,
COc1ccc2nc3c(cc2c1)c(NC(=O)c1cccs1)nn3CC(C)C,5.43,
CC[n+]1ccccc1/C=C/c1ccc(N(C)C)cc1,5.53,
Cc1ccc(-n2ncc3c(SCc4cccnc4)ncnc32)c(C)c1,5.24,
CCOc1ncccc1C(=O)OCC(=O)Nc1ccc(-c2nc3ccc(C)cc3s2)cc1,5.49,
CCCCCCCc1ccc(-c2ccc(O)cc2)nc1,5.49,
CCCNC(=O)c1ccc(-c2nc3ccccc3s2)s1,5.30,
CCc1c(C)c2ccc(OCC(=O)OC(C)C)c(C)c2oc1=O,5.21,

# Source: PubChem BioAssay AID1399 (The Scripps Research Institute Molecular Screening Center, 2008)
